Measured values as given in US20200332222A1, “MUSK COMPOSITIONS AND METHODS OF USE THEREOF” (TAKASAGO INTERNATIONAL CORPORATION (USA), priority 2015, published 2020).

Experiments:
salivary alpha-amylase = experiment: Salivary alpha-amylase before vs after timed ten minute mathematical/word stress test, fragrance inhaled; assay type: in vivo, human; conditions: for Percent change in salivary alpha-amylase: solvent only control 66.8%; for Salivary Amylase Data (change before vs after stress test): Table 6, about 10-15 panelists, DPG control +60.7%
Method: Fourteen female panelists age 30-45 participated in this study. Stress was induced using a timed ten minute mathematical/word test in a small group competition setting. Fragrance was introduced at intervals during the stress test. Saliva was collected before (Pre) and immediately after (Post) the stress test. Saliva samples were assayed for salivary alpha-amylase using a commercially available kinetic reaction assay kit and for salivary cortisol using a highly sensitive enzyme immunoassay kit (Salimetrics®, State College, Pa.). […]
(§1) Saliva was collected before (Pre) and immediately after (Post) the stress test. Saliva samples were assayed for salivary alpha-amylase using a commercially available kinetic reaction assay kit and for salivary cortisol using a highly sensitive enzyme immunoassay kit (Salimetrics®, State College, Pa.).

salivary cortisol = experiment: Salivary cortisol before vs after timed ten minute mathematical/word stress test, fragrance inhaled; assay type: in vivo, human; conditions: for Cortisol Data (change before vs after stress test): Table 6, about 10-15 panelists, DPG control −10.9%
Description: Salivary cortisol is widely used as a biomarker for stress. The purpose of this study was to investigate the influence of individual fragrance compounds, particularly musk compounds, on a subject's cortisol levels before and after exposure to a stressor. The subject sniffed each musk compound, then was exposed to a stressor. The goal was to identify one or more specific musk compounds which caused the least amount of change in cortisol levels or decreased a subject's cortisol levels compared to before administration, thereby reducing or inhibiting a response to stress stimuli. […]
Stress was induced in a number of panelists (about 10-15) for each tested compound using a timed ten minute mathematical/word test in a small group competition setting. The test compound was introduced at intervals during the stress test.
Saliva was collected before and immediately after the stress test. Saliva samples were assayed for salivary cortisol levels and salivary alpha-amylase activity using a commercially available kinetic reaction assay kit (Salimetrics®, State College, Pa.). […]
as §1

[1] = Chassis-air partition coefficient of accord components; assay type: physicochemical
[2] = as above; assay type: physicochemical; conditions: BC-162 shampoo chassis
Description: The chassis-air partition coefficient can be measured for materials in various chassis.
Ki,chassis-air is the chassis-air partition coefficient for component i in the fragrance formula
Ci, chassis is the concentration of component i in the product formula chassis in molarity, M
Ci, air is the concentration of component i in the headspace air in equilibrium with the formula chassis in molarity, M
For the “Example Accord” in the BC-162 shampoo chassis components, the log chassis-air partition coefficients are as listed in Table 11.

brain waves = experiment: Contingent Negative Variant (CNV) analysis of brain waves recorded by EEG; assay type: in vivo, human; conditions: Example 9; Musk T 10% by weight in DPG
Method: Contingent Negative Variant (CNV) analysis was conducted on brain waves recorded from subjects using EEG (electroencephalography) in the presence of the musk fragrance compound. CNV analysis is summarized in Okazaki et al., Proceedings of the 13th International Congress of Flavours, Fragrances and Essential Oils, 15-19 Oct. 1995.

[3] = Table 4, macrocyclic musks, 12-14 female panelists age 30-45, before vs immediately after stress test
[4] = Table 5, non-macrocyclic musks, methods as Example 6

| Compound | Percent change in salivary alpha-amylase (salivary alpha-amylase; [3]) | Salivary Amylase Data (change before vs after stress test) (salivary alpha-amylase) | Cortisol Data (change before vs after stress test) (salivary cortisol) | logK, APDO Soft Solid (log chassis-air partition coefficient) [1] | logK, BC162 (log chassis-air partition coefficient) [2] | also measured |
| --- | --- | --- | --- | --- | --- | --- |
| O=C1CCCCC=CCCCCCCCCCO1 [Ambrettolide, 17-oxacycloheptadec-6-en-1-one] | 13.1% | +13.16% | −11.25% |  |  |  |
| CCOC(=O)[C@@H]1[C@@H](C)CCCC1(C)C [ethyl (1R,6S)-2,2,6-trimethylcyclohexane-1-carboxylate] |  |  |  |  |  | Percent change in salivary alpha-amylase (salivary alpha-amylase; [4]): 70.7% |
| CC(=O)c1cc2c(cc1C)C(C)(C)C(C)C2(C)C (stereo not shown) [Phantolide, 1-(1,1,2,3,3,6-hexamethyl-2H-inden-5-yl)ethanone] |  | −19.2% | −12.3% |  |  |  |
| CC(=O)OC(C)C1CCCC(C)(C)C1 (stereo not shown) [Rosamusk, 1-(3,3-dimethylcyclohexyl)ethyl acetate] |  | −15.2% | +6.68% |  |  | Pre vs. Post salivary alpha-amylase level, decrease in response to stress test (salivary alpha-amylase; Example 10, FIG. 7, Rosamusk 10% by weight in DPG, DPG alone increased 33%): 15%; Pre vs. Post salivary cortisol level, increase in response to stress test (salivary cortisol; Example 10, FIG. 8, Rosamusk 10% by weight in DPG, DPG alone 25%): 7% |
| CC1CCCCCCCCCCCCC(=O)C1 [L-Muscone] |  | +14.5% | +25.6% |  |  |  |
| CC(=O)CCc1ccc(O)cc1 [PARA HYDROXY PHENYL BUTANONE] |  |  |  | 6.135 | 7.809 |  |
| O=C1CCCC=CCCCCCCCCCC1 [Ambretone ®, 5-Cyclohexadecen-1-one] | 36.9% |  |  |  |  |  |
| O=C1CCCCCCCCCCCC(=O)OCCO1 [Musk T ®, ethylene brassylate] | 47.1% |  |  | 7.306 | 6.345 | increase in the level of relaxation, CNV analysis of brain waves (brain waves): 32.5%; Pre vs. Post salivary alpha-amylase level, increase in response to stress test (salivary alpha-amylase; Example 8, FIG. 3, Musk T 2.5% by weight in fragrance (floral fragrance/Musk T 75/25 admixture, 10% in DPG), DPG alone 120%): 38%; Pre vs. Post salivary alpha-amylase level, increase in response to stress test (salivary alpha-amylase; Example 9, FIG. 5, Musk T 10% by weight in DPG, DPG alone 161%): 47%; Pre vs. Post salivary cortisol level, decrease in response to stress test (salivary cortisol; Example 8, FIG. 4, Musk T 2.5% by weight in fragrance (floral fragrance/Musk T 75/25 admixture, 10% in DPG), DPG alone increased 24%): 8%; Pre vs. Post salivary cortisol level, increase in response to stress test (salivary cortisol; Example 9, FIG. 6, Musk T 10% by weight in DPG, DPG alone 41%): 10% |
| O=C1CCCCCCCCCOCCCCCO1 [MUSK RI, 11-Oxahexadecan-16-olide] |  |  |  | 6.970 | 5.780 |  |
| O=C1CCCCCCCCCCCCCCO1 [EXALTOLIDE, 16-oxacyclohexadecan-1-one] |  |  |  | 6.729 | 5.356 |  |
| CC(=O)C(C)CC[C@H]1CCC(C)C1(C)C (stereo partly drawn) [3-methyl-5-((1R)-2,2,3-trimethylcyclopentyl)pentan-2-one] |  | −6.1% | −16.5% |  |  |  |
| CC1=CCC(C/C=C(\C)CO)C1(C)C (stereo not shown) [Hindinol, (E)-2-methyl-4-(2,2,3-trimethyl-1-cyclopent-3-enyl)but-2-en-1-ol] |  | +82.3% | −25.0% |  |  | Percent change in salivary alpha-amylase (salivary alpha-amylase; [4]): 82.3% |
| O=C1CCCCCCCCC/C=C/CCCO1 [Habanolide, (12E)-1-oxacyclohexadec-12-en-2-one] | 4.7% | +4.67% | −20.6% | 6.693 | 5.505 |  |
